# Source: ChEMBL document CHEMBL1201862, “PubChem BioAssay data set” (2004)
# Activity calls are given as the source filed them.
# Experiments:
# [1] = control 3'UTR Renilla luciferase suppression, dose response, counter-screen for Shn3 inhibitor project, cell-based, Clone20-Shn3RL, cherry-picked (AID 624133); type: functional
# [2] = inhibitors of intracellular T. cruzi replication, confirmation, NIH3T3 host cells, beta-gal luminescence (AID 2044); type: functional, cell-based;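 note: intracellular parasites grown in NIH/3T3 mouse fibroblasts as host cells; luminescent beta-galactosidase reporter signal from transgenic T. cruzi replicating inside host cells; inhibitors lower the luminescence signal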
# Streptokinase A = target: T1, Streptokinase A (Streptococcus pyogenes serotype M1, UniProt P10520); assay: S. pyogenes streptokinase expression inhibitors, potency, dose response, plasminogen activation absorbance, OD405 (AID 1914); type: functional, Streptococcus pyogenes M1 GAS;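 note: secreted streptokinase activity via plasminogen activation per viability signal from cell pellet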
# T1 sequence (P10520 whole entry): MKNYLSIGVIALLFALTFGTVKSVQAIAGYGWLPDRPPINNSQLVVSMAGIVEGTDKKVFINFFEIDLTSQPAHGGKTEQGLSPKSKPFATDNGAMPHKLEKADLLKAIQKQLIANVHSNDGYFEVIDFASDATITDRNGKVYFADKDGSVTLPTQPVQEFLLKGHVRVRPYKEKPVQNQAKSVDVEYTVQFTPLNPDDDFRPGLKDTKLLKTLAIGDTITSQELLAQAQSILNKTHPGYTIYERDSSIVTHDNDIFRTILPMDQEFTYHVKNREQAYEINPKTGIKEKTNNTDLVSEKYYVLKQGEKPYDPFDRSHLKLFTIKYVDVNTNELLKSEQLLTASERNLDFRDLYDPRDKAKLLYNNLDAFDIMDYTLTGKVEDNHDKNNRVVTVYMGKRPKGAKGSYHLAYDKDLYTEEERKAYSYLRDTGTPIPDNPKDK
# [3] = test system: Streptococcus sp. 'group A'; assay: growth inhibition of control SK(-) GAS strain, dose response, counter-screen for streptokinase expression inhibitor project, luminescence, kanamycin, BacTiterGlo, confirmation (AID 1900); type: functional, organism-based
# [4] = HepG2 cell cytotoxicity, dose response, cytotoxicity control for Shn3 inhibitor project, CellTiter-Glo, cherry-picked (AID 624134); type: functional, cell-based
# Cytochrome P450 2D6 = Cytochrome P450 2D6 (Homo sapiens, UniProt P10635);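 note: CYP2D6 member of a cytochrome P450 panel assay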
# Cytochrome P450 2D6, sequence (P10635 whole entry): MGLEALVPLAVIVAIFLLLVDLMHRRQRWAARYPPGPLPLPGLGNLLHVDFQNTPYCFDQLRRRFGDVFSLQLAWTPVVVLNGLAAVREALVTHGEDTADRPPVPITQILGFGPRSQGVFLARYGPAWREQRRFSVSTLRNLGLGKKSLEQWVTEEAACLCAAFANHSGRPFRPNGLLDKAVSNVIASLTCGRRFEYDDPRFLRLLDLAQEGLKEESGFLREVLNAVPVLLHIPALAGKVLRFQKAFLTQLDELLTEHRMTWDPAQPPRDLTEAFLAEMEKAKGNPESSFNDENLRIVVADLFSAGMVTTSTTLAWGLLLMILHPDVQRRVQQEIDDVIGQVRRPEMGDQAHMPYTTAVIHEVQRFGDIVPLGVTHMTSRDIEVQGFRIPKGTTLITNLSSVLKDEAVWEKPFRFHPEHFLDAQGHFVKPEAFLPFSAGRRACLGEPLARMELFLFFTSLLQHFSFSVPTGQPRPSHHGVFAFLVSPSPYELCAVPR
# [5] = cytotoxicity toward NIH3T3 fibroblasts, dose response, counter-screen, cell-based, ATP luminescence, mouse fibroblasts (AID 2010); type: functional;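 note: cells exposed to compound for about 90 hours before reading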
# Streptococcus = assay: Group A Streptococcus viability loss, dose response, counter-screen for streptokinase expression inhibitor project, luminescence, BacTiterGlo (AID 1915); type: functional, organism-based;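 note: potency for reduction of bacterial viability or growth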
# [6] = Shn3 3'UTR reporter inhibitors, dose response, cell-based, Clone20 osteoblasts, firefly luciferase, cherry-picked (AID 624132); type: functional;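 note: firefly luciferase luminescence from reporter carrying the Shn3 3'UTR in osteoblasts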
# P388 = assay: cells; type: functional; details: Mus musculus
# SN12K1 = assay: cells; type: functional; details: Homo sapiens
# P388/ADR = assay: cells; type: functional; details: Mus musculus
# H9c2 = assay: cells; type: functional, cell-based; details: Rattus norvegicus, H9c2, Myocardium;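 note: confirmatory concentration-response retest of ultra-high-throughput screening hits for modulation of myocardial damage; cell death induced by hydrogen peroxide oxidative stress; compound pretreatment for 60 min then peroxide exposure for 2 h; potency is for protecting the cells against peroxide damage rather than for killing them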
# Cytochrome P450 2C9 = Cytochrome P450 2C9 (Homo sapiens, UniProt P11712)
# Cytochrome P450 2C9, sequence (P11712 whole entry): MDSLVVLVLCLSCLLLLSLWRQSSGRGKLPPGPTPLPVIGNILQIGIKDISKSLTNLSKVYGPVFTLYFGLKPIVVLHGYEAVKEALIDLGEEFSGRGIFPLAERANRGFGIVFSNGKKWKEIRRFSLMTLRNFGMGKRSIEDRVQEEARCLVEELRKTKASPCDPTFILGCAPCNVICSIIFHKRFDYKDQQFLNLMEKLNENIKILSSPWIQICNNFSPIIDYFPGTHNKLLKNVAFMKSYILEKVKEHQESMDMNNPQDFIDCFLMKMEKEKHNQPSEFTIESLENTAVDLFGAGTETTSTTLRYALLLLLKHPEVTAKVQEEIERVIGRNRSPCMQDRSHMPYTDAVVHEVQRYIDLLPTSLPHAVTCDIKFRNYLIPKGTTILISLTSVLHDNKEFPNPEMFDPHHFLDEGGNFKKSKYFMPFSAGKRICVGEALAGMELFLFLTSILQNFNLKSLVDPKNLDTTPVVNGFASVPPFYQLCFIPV
# [7] = Luminescence Cell-Based Dose Response HTS to Identify Activators of Luciferase Translation or Activity in H4 […] Cells. [Related pubchem assays: 1829 (Project Summary), 1814 (Primary HTS)]; type: functional
# Cytochrome P450 1A2 = target: T2, Cytochrome P450 1A2 (Homo sapiens, UniProt P05177);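 note: PubChem cytochrome P450 panel assay, CYP1A2 panel member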
# T2 sequence (P05177 whole entry): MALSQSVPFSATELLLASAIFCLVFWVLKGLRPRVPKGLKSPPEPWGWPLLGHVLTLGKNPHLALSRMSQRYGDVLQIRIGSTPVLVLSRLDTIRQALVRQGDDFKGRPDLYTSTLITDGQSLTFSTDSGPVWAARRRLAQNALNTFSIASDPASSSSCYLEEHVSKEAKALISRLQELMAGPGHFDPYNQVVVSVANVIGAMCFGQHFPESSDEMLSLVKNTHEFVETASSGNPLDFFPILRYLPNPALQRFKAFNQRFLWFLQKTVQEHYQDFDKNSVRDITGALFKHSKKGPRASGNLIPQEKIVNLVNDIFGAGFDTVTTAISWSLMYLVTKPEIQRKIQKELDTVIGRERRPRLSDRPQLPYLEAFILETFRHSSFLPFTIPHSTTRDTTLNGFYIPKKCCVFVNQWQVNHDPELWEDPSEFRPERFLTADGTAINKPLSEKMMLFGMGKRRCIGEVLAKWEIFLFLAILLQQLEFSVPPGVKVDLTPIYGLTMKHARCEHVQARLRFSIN
# [8] = target: T3, RNA-binding protein pos-1 (Caenorhabditis elegans, UniProt G5EF15); assay: inhibitors of POS-1/mex-3 RNA binding, dose response, biochemical, fluorescence polarization (AID 1964);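 note: purified POS-1 fused to maltose binding protein made in E. coli; potency of compounds blocking POS-1 binding to fluorescent RNA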
# T3 sequence (G5EF15 whole entry): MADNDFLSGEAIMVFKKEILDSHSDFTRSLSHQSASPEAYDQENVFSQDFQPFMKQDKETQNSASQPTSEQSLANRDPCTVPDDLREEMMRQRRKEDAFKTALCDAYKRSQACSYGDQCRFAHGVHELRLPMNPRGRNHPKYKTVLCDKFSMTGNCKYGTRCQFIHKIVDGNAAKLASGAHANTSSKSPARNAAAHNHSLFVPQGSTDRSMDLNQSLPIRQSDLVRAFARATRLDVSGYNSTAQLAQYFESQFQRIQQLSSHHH
# [9] = target: T4, Zinc finger protein mex-5 (Caenorhabditis elegans, UniProt Q9XUB2); assay: MEX-5/TCR-2 RNA interaction inhibitors, dose response, biochemical, C. elegans, fluorescence polarization (AID 1960)
# T4 sequence (Q9XUB2 whole entry): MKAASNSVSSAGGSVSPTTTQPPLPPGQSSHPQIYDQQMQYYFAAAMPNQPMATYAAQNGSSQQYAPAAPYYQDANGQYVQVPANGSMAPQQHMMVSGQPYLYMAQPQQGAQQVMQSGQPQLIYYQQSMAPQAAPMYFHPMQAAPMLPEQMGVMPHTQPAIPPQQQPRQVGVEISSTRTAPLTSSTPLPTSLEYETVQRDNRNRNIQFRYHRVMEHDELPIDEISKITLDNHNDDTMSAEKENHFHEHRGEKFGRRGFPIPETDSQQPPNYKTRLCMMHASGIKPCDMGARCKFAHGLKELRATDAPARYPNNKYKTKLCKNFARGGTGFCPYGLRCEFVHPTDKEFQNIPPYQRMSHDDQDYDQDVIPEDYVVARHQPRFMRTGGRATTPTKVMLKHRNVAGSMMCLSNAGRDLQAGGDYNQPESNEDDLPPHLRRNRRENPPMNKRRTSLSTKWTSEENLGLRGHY
# [10] = microbe, parasite or virus in culture; type: functional; details: Mycobacterium tuberculosis
# [11] = Luminescence Cell-Based Dose Response HTS to Identify Inhibitors of 5'UTR Stem-Loop Driven Prion Protein mRNA Translation in H4 Neuroglioblastoma Cells. [Related pubchem assays: 1827 (Project Summary), 1813 (Primary HTS)]; type: functional
# [12] = target: T5, Heat shock factor protein 1 (Mus musculus, UniProt P38532); assay: inhibition of MG132-induced HSE-luciferase signal, confirmation, cell-based, NIH3T3, luminescence, dose retest (AID 2382); type: functional;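 note: NIH3T3 fibroblasts with HSF1-driven luciferase reporter stressed by proteasome inhibitor MG132; luminescence from HSF1-driven luciferase expression after 8 hours of MG132 stress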
# T5 sequence (P38532 whole entry): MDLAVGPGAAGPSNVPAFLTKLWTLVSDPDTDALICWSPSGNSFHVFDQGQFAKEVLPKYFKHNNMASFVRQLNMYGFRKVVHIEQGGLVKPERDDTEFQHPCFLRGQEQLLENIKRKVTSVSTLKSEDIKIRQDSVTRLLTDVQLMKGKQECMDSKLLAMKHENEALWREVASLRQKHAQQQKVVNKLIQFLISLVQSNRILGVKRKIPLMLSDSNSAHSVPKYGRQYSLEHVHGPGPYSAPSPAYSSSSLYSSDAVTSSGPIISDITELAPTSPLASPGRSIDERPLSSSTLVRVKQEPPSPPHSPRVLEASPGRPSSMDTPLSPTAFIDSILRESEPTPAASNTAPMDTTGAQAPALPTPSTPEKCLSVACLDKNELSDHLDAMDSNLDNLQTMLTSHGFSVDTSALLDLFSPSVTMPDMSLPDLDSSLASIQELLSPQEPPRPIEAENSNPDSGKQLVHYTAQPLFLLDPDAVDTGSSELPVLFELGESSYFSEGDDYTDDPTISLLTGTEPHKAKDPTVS
# [13] = inhibitors of SNCA 5'UTR-driven reporter translation, confirmation, H4 neuroglioma cells, luminescence (AID 1988); type: functional, cell-based
compound,measurement,setting,value
O=C(/C=C/c1ccccc1)NC(NC(=S)Nc1ccc(Cl)cc1)C(Cl)(Cl)Cl (stereo not drawn),AC50,[1],30.4 µM (active)
same,EC50,[2],1.08 µM (active)
same,EC50,Streptokinase A,> 150 µM (not active)
same,EC50,[3],5.79 µM (active)
same,AC50,[4],26.7 µM (active)
same,AC50,Cytochrome P450 2D6,7.94 µM (inconclusive)
same,EC50,[5],> 60 µM (not active)
same,EC50,Streptococcus,> 150 µM (not active)
same,AC50,[6],5.13 µM (active)
C1CN1c1nc(N2CC2)nc(N2CC2)n1,GI50,P388,0.465 µM (active)
same,GI50,SN12K1,5.21 µM (inactive)
same,GI50,P388/ADR,0.466 µM (active)
COc1ccccc1C(=O)Nc1nc(-c2ccc3c(c2)OCCO3)cs1,IC50,H9c2,> 79 µM (inactive)
COc1cc2c(C#CCCO)c(-c3ccsc3)oc(=O)c2cc1OC,IC50,H9c2,20.7 µM (active)
CC(C)c1nc2oc3ccccc3c(=O)c2c(=O)n1-c1ccccc1,AC50,Cytochrome P450 2C9,1.78 µM (inconclusive)
same,EC50,[7],63.4 µM (active)
same,AC50,Cytochrome P450 1A2,39.8 µM (inconclusive)
CCOC(=O)C[n+]1ccc2c([nH]c3cc(OC)ccc32)c1C,GI50,P388,38.9 µM (inactive)
same,GI50,SN12K1,> 80.2 µM (inactive)
same,GI50,P388/ADR,35.1 µM (inactive)
c1ccc2cc3c(cc2c1)OP1(Oc2cccc4cccnc24)(O3)Oc2cc3ccccc3cc2O1,GI50,P388,1.2 µM (inactive)
same,GI50,SN12K1,3.31 µM (inactive)
same,GI50,P388/ADR,1.42 µM (inactive)
S=C(NCCCCCCNC(=S)Nc1c2ccccc2nc2ccccc12)Nc1c2ccccc2nc2ccccc12,GI50,P388,44.5 µM (inactive)
same,GI50,SN12K1,6.22 µM (inactive)
same,GI50,P388/ADR,65 µM (inactive)
COc1ccccc1OCC(=O)Nc1sc2c(c1C(=O)NCC1CCCO1)CCC2 (stereo not drawn),IC50,H9c2,30.4 µM (inactive)
COc1ccc(C(=O)Nc2nc(-c3ccc([N+](=O)[O-])cc3)c(-c3ccccc3)s2)cc1,EC50,[8],> 300 µM (not active)
same,EC50,[9],> 300 µM (not active)
COc1ccc(C2C(C#N)=C(N)OC3=C2C(=O)CC(C)(C)C3)c(OC)c1OC (stereo not drawn),EC50,[8],> 300 µM (not active)
same,EC50,[9],> 300 µM (not active)
C=CCN=C(S)N1CCN(c2cccc(C(F)(F)F)c2)CC1,EC50,[8],> 300 µM (not active)
same,EC50,[9],> 300 µM (not active)
Cc1c(NC(=O)Cn2[nH]c(=O)c3ccccc3c2=O)c(=O)n(-c2ccccc2)n1C,IC50,H9c2,38.5 µM (inactive)
C=CC1(NC(=O)c2ccccc2)CCC(C(C)(C)C)CC1 (stereo not drawn),GI50,P388,12.2 µM (inactive)
same,GI50,SN12K1,32.4 µM (inactive)
same,GI50,P388/ADR,22.2 µM (inactive)
CC1CCCC(C)N1/N=C/c1c[nH]c2ccc(Br)cc12 (stereo not drawn),CC50,[10],24.4 µM (active)
CCOc1cccc(-c2nn3c(-c4ccccn4)nnc3s2)c1,IC50,H9c2,> 79 µM (inactive)
COc1ccc(C(C)=O)cc1COC(=O)Cc1nnc(O)c2ccccc12,IC50,H9c2,> 79 µM (inactive)
O=S(=O)(c1ccc(Cl)cc1)c1cc(O)ccc1O,IC50,H9c2,12.4 µM (active)
CN(C)S(=O)(=O)c1cccc(NC(=O)c2cccc(S(=O)(=O)N3CCc4ccccc43)c2)c1,AC50,[1],11.7 µM (active)
same,AC50,[4],60.9 µM (active)
same,AC50,[6],3.92 µM (active)
COc1ccc(-c2csc(NC(C)c3nc4cc(Cl)c(N5CCCCC5)cc4n3CCCO)n2)cc1 (stereo not drawn),CC50,[10],> 40 µM (active)
CC(C)C1C(=O)N(Cc2cn(CCC3OCCO3)nn2)CCS(=O)(=O)N1Cc1ccc(-c2ccc(Cl)cc2)cc1 (stereo not drawn),AC50,[1],2.83 µM (active)
same,AC50,[4],> 70 µM (inactive)
same,AC50,[6],2.13 µM (active)
O=C(Nc1ccc(N2CCOCC2)c(Cl)c1)c1ccc([N+](=O)[O-])o1,AC50,[1],14.7 µM (active)
same,AC50,[4],24.9 µM (active)
same,AC50,[6],6.23 µM (active)
CCc1ccc2oc(-c3cc(/N=C/c4cccc(OC)c4O)ccc3O)nc2c1,EC50,[2],2.45 µM (active)
same,CC50,[10],> 40 µM (active)
same,EC50,[5],> 30 µM (not active)
O=[N+]([O-])c1cnccc1-n1nnc2ccccc21,GI50,P388,7.96 µM (inactive)
same,GI50,SN12K1,27.7 µM (inactive)
CS(=O)(=O)c1ccc(C(=O)OCC(=O)Nc2cccnc2Cl)cc1[N+](=O)[O-],AC50,[1],12.9 µM (active)
same,AC50,[4],> 70 µM (inactive)
same,AC50,[6],9.09 µM (active)
CC(C)(C)c1nc(SCC(=O)Nc2nc3c(s2)CCCC3)c2ccccc2n1,EC50,[2],1.45 µM (active)
same,CC50,[10],38.7 µM (active)
same,EC50,[5],12.5 µM (active)
CN(C)c1ccc(-c2noc(-c3ccccc3O)n2)cc1,EC50,[11],10.5 µM (inconclusive)
CC1=C(C#N)C(=O)N(C)C(=O)/C1=C\N,EC50,[8],> 300 µM (not active)
same,EC50,[9],> 300 µM (not active)
COc1cccc(CN2CCN(C(=O)c3cc(-c4cccnc4)nc4ccc(C)cc34)CC2)c1,IC50,H9c2,11.6 µM (active)
O=C(Cc1ccc([N+](=O)[O-])cc1)Nc1cc(C(F)(F)F)cc(C(F)(F)F)c1,EC50,[2],2.18 µM (active)
same,CC50,[10],8.99 µM (active)
same,EC50,[5],7.77 µM (active)
"COC1=CC(=O)c2ccccc2C1=O [2-Methoxy-1,4-naphthoquinone]",CC50,[10],12.7 µM (active)
c1ccc(-c2cn3nc(-c4ccccc4)sc3n2)cc1,EC50,[11],0.583 µM (active)
same,EC50,[12],< 0.16 µM (active)
same,EC50,[13],0.402 µM (inconclusive)
